Holding throughout (assay type): cell-based
One assay has as its system PANC-1 cells. The experiment in a line: MTT cell activity assay (inhibitory activity against PANC-1 cells). As to the method:
A total of 3000 PANC-1 cells were resuspended in 200 μL of culture medium and seeded into 96-well plates. After 24 h, the cells were treated with the compound and incubated for an additional 72 h. Following the incubation, 20 μL of 5 mg/mL MTT solution (Solarbio, China) was added to each well in the dark, and the cells were incubated for another 4 h. After incubation, the culture medium was discarded, and the wells were washed with PBS to remove any residual medium. Then, 200 μL of DMSO was added to each well to fully dissolve the formazan crystals, and the solution was mixed thoroughly. The absorbance was measured at 492 nm/570 nm, and the data were analyzed using GraphPad Prism.
A general note: Tetrazolium assays rely on reduction of a dye to a coloured formazan, in cell work by metabolically active cells.

Assay [1] concerns PANC-1 and MIA PaCa-2 pancreatic cancer cells. The experiment in a line: Wound healing assay. To be noted: PANC-1 and MIA PaCa-2, 24 h, concentration-dependent, vs control. The text has this: (§1) Figure S225. Compound 1a inhibited the migration, invasion and proliferation of pancreatic cancer cells. (A) The results of wound healing assays to investigate the effects of 1a on the migration ability against PANC-1 and MIA PaCa-2 pancreatic cancer cells. (B) The results of transwell assays to investigate the effects of 1a on the invasion ability. (C) Effects of 1a on the clonogenic ability. (D) EdU assays of 1a. (E) Western blot assays of 1a on biomarkers. Data are presented as mean ± SD, n […]
(§2) Approximately 50% of pancreatic cancer patients show distant metastases at the time […]
(§3) disease. To evaluate the inhibitory effects of majusculamide D (1a) on the migratory capabilities of pancreatic cancer cells (PANC-1 and MIA PaCa-2), wound healing assays […]
(§4) were performed (Figure S1A). […]
(§5) concentration-dependent manner. […]
(§6) inhibited the migration of these pancreatic cancer cells. Further validation with transwell […]
(§7) concentration-dependent manner compared to the control group (Figure S1B). Since cell migration and invasion are correlated with cancer metastasis, compound 1a may delay the progression of tumors’ local spread and distant metastasis by inhibiting the migration and invasion ability of pancreatic cancer cells. […]
(§8) Images were taken at 0 hour and 24 hours after treatment to record and analyzed by measuring the area of the wound at each time point using ImageJ. […]

The test system is the same in assay [2]. The experiment in a line: Transwell invasion assay. To be noted: 24 h, concentration-dependent, vs control.
Text: as §1, §2, §3, §4, §5, §6, §7, §8

A further assay has as its system pancreatic cancer cells. The experiment in a line: EdU assay. To be noted: 48 h treatment, concentration-dependent, vs control.
Text: The EdU ([…]) assay is a well-established method that assesses cell proliferation activity by detecting DNA synthesis. The results of EdU assays indicated […]
as §5
the DNA synthesis of pancreatic cancer cells, thereby inhibiting the proliferation of pancreatic cancer cells, which was consistent with the results of clone formation assays. […]
Snail and TCF8/ZEB1 both […]
are transcription factors that can inhibit the expression of E-cadherin and promote the EMT process. Vimentin is a marker protein of mesenchymal cells, and its expression increases during EMT, further contribute to the process of metastasis by supporting the structural changes needed for cell migration and invasion.
We examined the effects of compound 1a on above key proteins involved in tumor progression pathways employing Western blot analysis in PANC-1 cells and MIA PaCa-2 […]
1a might inhibit cancer cell invasion and migration by enhancing cell-cell adhesion and barrier function. Conversely, the expression levels of β-catenin, Fibronectin, Snail, […]
Cells were resuspended at a concentration of 300 cells/mL, and 2 mL of the suspension was added to each well of a 6-well plate. […] The colonies were imaged under a microscope and quantified using ImageJ. […]

Read-outs that look alike come from different tables or passages of the source.

Usually IC50 stands for the concentration needed to halve the response being measured. For the molecule `CCCCC(C)CC(C)C(=O)N(C)C(Cc1ccc(OC)cc1)C(=O)NC(C(=O)N(C)C(C(=O)N1CC(O)CC1C(=O)N1C(=O)C=CC1C)C(C)C)C(C)OC(C)=O` (centres unmarked) [Compound 1a, Majusculamide D], the IC50 with PANC-1 cells (Homo sapiens, PANC-1, 72 h, read-out: IC50 (nM), inhibitory activity against PANC-1 cells (Table 2), PANC-1 cells, 72 h incubation, mean ± SD, n = 3, Table 2 series) is 1.99 ± 0.68 nM; in the assay with PANC-1 cells (read-out: IC50 (nM), inhibitory activity against PANC-1 cells (Table 1), PANC-1 cells, 72 h incubation, mean ± SD, n = 3), 1.88 ± 0.82 nM. Besides, the “scratch wound healing rate (migration)” value in assay [1] is recorded as “significantly reduced the scratch wound healing rate”. For the same molecule, the “cell invasion (transwell)” value in assay [2] is reported as “significantly decreased cell invasion”. The “cell proliferation ability (EdU, DNA synthesis)” value in the assay on pancreatic cancer cells is “decreased in comparison to the control group”.

These data come from paper PMC11679793, “Structure-Activity Relationship Study of Majusculamide D: Overcoming Metabolic Instability and Severe Toxicity with a Fluoro Analogue” (Marine Drugs, 2024).
